In article PMC8657855 (International Journal of Molecular Sciences, 2021):
≈ marks a conversion by molar mass, not a printed value.

Tests used:
Test in all cases: microbe, parasite or virus in culture
[1] = tested on: Xanthomonas oryzae pv. oryzicola Xoc; settings: for inhibition at 10 µg/mL: read-out: Inhibition (%) 10 (mg/L); for inhibition at 50 µg/mL: read-out: Inhibition (%) 50 (mg/L)
[2] = tested on: Xanthomonas oryzae pv. oryzae Xoo; settings: for inhibition at 10 µg/mL: read-out: Inhibition (%) 10 (mg/L); for inhibition at 50 µg/mL: read-out: Inhibition (%) 50 (mg/L)
[3] = tested on: Xanthomonas oryzae pv. oryzae Xoo; settings: read-out: EC50 (mg/L) Xoo
[4] = tested on: Xanthomonas oryzae pv. oryzicola Xoc; settings: read-out: EC50 (mg/L) Xoc

| SMILES | inhibition at 10 µg/mL [1] [%] | inhibition at 50 µg/mL [1] [%] | inhibition at 10 µg/mL [2] [%] | inhibition at 50 µg/mL [2] [%] | EC50 [3] [mg/L] | EC50 [4] [mg/L] |
| --- | --- | --- | --- | --- | --- | --- |
| CCS(=O)(=O)c1nnc(CNC(=O)C=Cc2ccc(C)cc2)o1 [compound 13, N-((5-(ethylsulfonyl)-1,3,4-oxadiazol-2-yl)methyl)-3-(p-tolyl)acrylamide] | 98.1 ± 0.6 | 95.8 ± 1.2 | 99.5 ± 0.1 | 99.2 ± 0.2 | 0.72 ± 0.07 (≈ 2.15 µM) | 0.88 ± 0.03 (≈ 2.62 µM) |
| CS(=O)(=O)c1nnc(CNC(=O)C=Cc2ccc(Cl)cc2)o1 [compound 14, 3-(4-chlorophenyl)-N-((5-(methylsulfonyl)-1,3,4-oxadiazol-2-yl)methyl)acrylamide] | 98.8 ± 0.7 | 98.2 ± 1.1 | 97.6 ± 0.8 | – | 0.43 ± 0.06 (≈ 1.26 µM) | 0.61 ± 0.03 (≈ 1.78 µM) |
| CCS(=O)(=O)c1nnc(CNC(=O)C=Cc2ccc(Cl)cc2)o1 [compound 15, 3-(4-chlorophenyl)-N-((5-(ethylsulfonyl)-1,3,4-oxadiazol-2-yl)methyl)acrylamide] | 97.9 ± 0.4 | 98.9 ± 0.3 | 98.1 ± 0.6 | 98.3 ± 0.2 | 0.43 ± 0.04 (≈ 1.21 µM) | 1.45 ± 0.05 (≈ 4.08 µM) |
| CS(=O)(=O)c1nnc(CNC(=O)C=Cc2ccc(Cl)cc2Cl)o1 [compound 16, 3-(2,4-dichlorophenyl)-N-((5-(methylsulfonyl)-1,3,4-oxadiazol-2-yl)methyl)a crylamide] | 99.2 ± 0.7 | 97.7 ± 0.7 | 98.9 ± 0.3 | 99 ± 0.4 | 0.42 ± 0.05 (≈ 1.12 µM) | 1.15 ± 0.05 (≈ 3.06 µM) |
| CC(=CC(=O)NCc1nnc(S(C)(=O)=O)o1)c1ccccc1 [compound 17, N-((5-(methylsulfonyl)-1,3,4-oxadiazol-2-yl)methyl)-3-phenylbut-2-enamide] | 67.7 ± 0.9 | 94.7 ± 0.9 | 99.4 ± 0.5 | 99.7 ± 0.4 | 0.54 ± 0.04 (≈ 1.68 µM) | 5.21 ± 0.11 (≈ 16.2 µM) |
| Cc1ccc(C(=O)NCc2nnc(S(C)(=O)=O)o2)c(C)c1 [compound 18, 2,4-dimethyl-N-((5-(methylsulfonyl)-1,3,4-oxadiazol-2-yl)methyl)benzamide] | 98.9 ± 1 | 96.9 ± 0.2 | 98.8 ± 0.2 | 98.2 ± 1.4 | 0.69 ± 0.04 (≈ 2.23 µM) | 1.74 ± 0.11 (≈ 5.62 µM) |
| CCS(=O)(=O)c1nnc(CNC(=O)c2ccc(C)cc2C)o1 [compound 19, N-((5-(ethylsulfonyl)-1,3,4-oxadiazol-2-yl)methyl)-2,4-dimethylbenzamide] | 98.2 ± 1 | 95.8 ± 0.8 | 97.2 ± 1.4 | 98.1 ± 0.8 | 1.08 ± 0.11 (≈ 3.34 µM) | 1.69 ± 0.18 (≈ 5.23 µM) |
| Cc1ccc(C(=O)NCc2nnc(S(C)(=O)=O)o2)cc1 [compound 20, 4-methyl-N-((5-(methylsulfonyl)-1,3,4-oxadiazol-2-yl)methyl)benzamide] | 67.8 ± 6.8 | 99 ± 0.9 | 99.4 ± 0.3 | 99.6 ± 0.3 | 0.63 ± 0.06 (≈ 2.13 µM) | 1.66 ± 0.21 (≈ 5.62 µM) |
| CS(=O)(=O)c1nnc(CNC(=O)c2c(F)cccc2F)o1 [compound 21, 2,6-difluoro-N-((5-(methylsulfonyl)-1,3,4-oxadiazol-2-yl)methyl)benzamide] | 97.1 ± 2.3 | 98.4 ± 1.1 | 97.4 ± 0.3 | 96.3 ± 0.4 | 0.65 ± 0.05 (≈ 2.05 µM) | 1.51 ± 0.02 (≈ 4.76 µM) |
| CS(=O)(=O)c1nnc(CNC(=O)c2ccc(C(F)(F)F)cc2)o1 [compound 22, N-((5-(methylsulfonyl)-1,3,4-oxadiazol-2-yl)methyl)-4-(trifluoromethyl)benz amide] | 90.3 ± 5.5 | 99.3 ± 0.3 | 99.7 ± 0.2 | 99.9 ± 0.1 | 0.72 ± 0.05 (≈ 2.06 µM) | 1.7 ± 0.09 (≈ 4.87 µM) |
| CS(=O)(=O)c1nnc(CNC(=O)c2ccc(F)cc2F)o1 [compound 23, 2,4-difluoro-N-((5-(methylsulfonyl)-1,3,4-oxadiazol-2-yl)methyl)benzamide] | 69.6 ± 1.8 | 99.5 ± 0.4 | 95.7 ± 1.9 | 95.4 ± 0.4 | 0.8 ± 0.09 (≈ 2.52 µM) | 7.41 ± 1.3 (≈ 23.4 µM) |
| CS(=O)(=O)c1nnc(CNC(=O)c2ccc(Cl)cc2)o1 [compound 24, 4-chloro-N-((5-(methylsulfonyl)-1,3,4-oxadiazol-2-yl)methyl)benzamide] | 96.9 ± 0.4 | 97.8 ± 2.7 | 99.9 ± 0.1 | 99.6 ± 0.2 | 0.4 ± 0.03 (≈ 1.27 µM) | 0.9 ± 0.04 (≈ 2.85 µM) |
| CCS(=O)(=O)c1nnc(CNC(=O)c2ccc(Cl)cc2)o1 [compound 25, 4-chloro-N-((5-(ethylsulfonyl)-1,3,4-oxadiazol-2-yl)methyl)benzamide] | 99.6 ± 0.3 | 98.8 ± 1 | – | 99.2 ± 0.3 | 0.82 ± 0.05 (≈ 2.49 µM) | 0.94 ± 0.09 (≈ 2.85 µM) |
